Test results: patent US8946201B2, “Methods for inhibiting TGF-β” (Saint Louis University, priority 2007, dated 2015)

Legend:
[1] = system: hair growth; experiment: Hair growth assay in mice; format: in vivo, mice (C57BL/6); conditions: lotion containing 0.025% cholesterol, topical every two days
Method: FIG. 7. Hair growth promotion in mice topically treated with cholesterol. Mice (female, 6 weeks old) were subjected to hair removal by using hair remover lotion Nair®. The areas after hair removal were treated with the lotion containing vehicle only or 0.025% cholesterol on the first day and every other two days. Photographs were taken immediately after hair removal and prior to topical application with vehicle (a,b,c) or lotion containing cholesterol (d,e,f). Photographs were taken at days 0 (a,d), 10 (b,e) and 18 (c,f). The dark color indicates an early stage of hair growth.
Hair at the back of female mice (C57BL/6, 6-8 weeks old, were removed by using Nair® lotion hair remover. Lotions containing 0.025 and 0.00625% cholesterol and vehicle only were topically applied onto the area where the hair was removed. On the first day and every other day, photographs were taken prior to administration of the lotions. On day 18, the re-grown hair was shaved and weighed.
The hair growth cycle is coordinated with complex processes that are dependent on the interactions of epithelial and dermal components (follicle keratinocytes and dermal papilla cells). The hair growth cycle includes two major phases, growing phase (anagen) and regression phase (catagen). The length and size of hair are dependent on the anagen term in the hair cycle. […]

[2] = system: Smad2 phosphorylation stimulated by TGF-β1; experiment: TGF-β1-stimulated Smad2 phosphorylation, Western blot, BAEC; format: cell-based, bovine; conditions: 25 μg/ml, 37° C. 1 hr, then 50 pM TGF-β1 0.5 hr
Method: Cells were treated with increasing concentrations of cholesterol, as indicated (A, B, C), 50 μg protein/ml LDL (D), 5 μg protein/ml VLDL (D) or 50 μg/ml cholesterol (E) at 37° C. for 1 hr and then further incubated with 50 pM TGF-β1 for 30 min. Phosphorylated Smad2 (P-Smad2) and total Smad2 in the cell lysates were analyzed by 7.5% SDS-PAGE and followed by immunoblot analysis using anti-P-Smad2 and anti-Smad2 antibodies. A representative of a total of 3 analyses is shown (top). The quantitative analysis of the immunoblots is shown (bottom). […] Smad2 nuclear translocation was analyzed by indirect immunofluorescent staining using P-Smad2 antibody and rhodamine-labeled 2nd antibody (E). Rhodamine fluorescence represents P-Smad2 staining (a,b,c) whereas the nuclei were stained by DAPI staining (d,e,f).
Cells grown to near confluence on 12-well cluster dishes were treated with cholesterol or LDL in serum-free DMEM (vol.=0.5 ml/well) at 37° C. for 1 hr. […] Treated cells were lysed and cell lysates were analyzed by 7.5% SDS-PAGE and Western blot analysis using anti-Smad2, anti-P-Smad2, anti-caveolin-1, anti-TβR-I (alk5) or anti-TβR-II antibodies as described previously (30). […]
It has been reported that TGF-β responsiveness is determined by TGF-β partitioning between lipid raft/caveolae-mediated and clathrin-mediated endocytosis. […]

CC(C)CCC[C@@H](C)[C@H]1CC[C@H]2[C@@H]3CC=C4C[C@@H](O)CC[C@]4(C)[C@H]3CC[C@]12C [cholesterol]
hair growth ([1]; day 10): the hair started to grow
hair growth ([1]; day 18): fully grown hair
suppression of Smad2 phosphorylation stimulated by TGF-β1 [2]: 90%
